Measurements as given in article PMC10439952, “JT002, a small molecule inhibitor of the NLRP3 inflammasome for the treatment of autoinflammatory disorders” (Scientific Reports, 2023).

Key:
[1] = system: autocatalytic cleavage of pro-caspase-1 (p45) into the p10 subunit; assay: Western blot for caspase-1 p10 in LPS + nigericin stimulated mouse BMDM lysates and supernatants; assay type: cell-based; conditions: LPS + nigericin treated mBMDMs, compound 10 µM
Protocol: BMDMs were activated with LPS and nigericin as described above and were lysed in situ with 50 μL of 4× NuPAGE LDS sample buffer (Fisher Scientific, Hampton, NH) + 5% β-mercaptoethanol and prepared for polyacrylamide gel electrophoresis. Samples were run on NuPAGE Bis–Tris gels (Fisher Scientific, Hampton, NH) and transferred to polyvinylidene difluoride (PVDF) membranes (Fisher Scientific, Hampton, NH) using the iBlot® 2 Dry Blotting System (Fisher Scientific, Hampton, NH). Washed PVDF membranes were blocked and then probed with the following primary antibodies: procaspase-1 + p10 + p12 [EPR16883] (Abcam, Cambridge, MA), β-actin (AC-74, Sigma-Aldrich, St. Louis, MO) and NLRP3 [Cryo-2] (AdipoGen Life Sciences, San Diego, CA). Bound primary antibodies were detected using HRP-labeled secondary antibodies and membranes were imaged with an Azure c300 imager (Azure Biosystems, Dublin, CA). Bands were quantitated using ImageJ software.

[2] = parameters: method as in PMID 26206150; conditions: daily dose of 1200 mg; development terminated; cited from earlier work
[3] = system: murine house dust mite model of severe corticosteroid-resistant asthma; parameters: method as in PMID 28528200; conditions: i.p. administration; cited from earlier work

CC(C)(O)c1coc(S(=O)(=O)NC(=O)Nc2c3c(cc4c2CCC4)CCC3)c1 [MCC950]
formation of the caspase-1 p10 subunit (autocatalytic cleavage of pro-caspase-1) [1]: blocked formation of the p10 subunit and its release from the cell
liver safety in the clinic [2]: drug induced liver injury (DILI) detected
bronchoalveolar lavage IL-1β concentrations [3]: reduced
bronchoalveolar lavage neutrophilia [3]: reduced
development of airway hyperresponsiveness [3]: completely prevented

CCOC(=O)C1=CCCC[C@H]1S(=O)(=O)Nc1ccc(F)cc1Cl [TAK242, ethyl (6R)-6-[N-(2-Chloro-4-fluorophenyl)sulfamoyl]cyclohex-1-ene-1-carboxylate]
formation of the caspase-1 p10 subunit (autocatalytic cleavage of pro-caspase-1) [1]: did not inhibit the autocatalytic cleavage of pro-caspase-1 into the p10 subunit
p10 component in cell supernatants [1]: appearance of the p10 component in cell supernatants

C[C@H](NC(=O)C(=O)Nc1ccccc1C(C)(C)C)C(=O)N[C@@H](CC(=O)O)C(=O)COc1c(F)c(F)cc(F)c1F [emricasan]
formation of the caspase-1 p10 subunit (autocatalytic cleavage of pro-caspase-1) [1]: did not inhibit the autocatalytic cleavage of pro-caspase-1 into the p10 subunit
